{
  "source": "patent US20130005802A1",
  "about": "“TREATMENT OF WNT/FRIZZLED-RELATED DISEASES” (priority 2009, published 2013)",
  "key": {"[1]": {"test_system": "HT29 cells", "experiment": "MTT assay, HT29", "format": "cell-based", "description": "AsPC-1 tumor cells were cultured with T cells at a 1:5 ratio for 7 days in the presence of MEDI-565 or Cont BiTE (100 ng/mL). On day 7, floating cells were discarded and only adherent AsPC-1 cells were harvested with 0.05% trypsin/EDTA and washed with PBS three times. 1×10^4 AsPC-1 tumor cells were added to each well of 96 well flat bottom plates in 200 μL of complete RPMI1640 medium. The cells were allowed to adhere to the plates overnight at 37° C. (day 0) and were further incubated for 1, 2, 4 or 7 days. 20 μL of 10×MTT (3-[4,5-dimethylthiazol-2-yl]-2,5-diphenyl-tetrazolium bromide, 5 mg/mL) solution was added to each well, and incubated at 37° C. for 2 hr. The adherent cells were lysed with 150 μL of dimethyl sulfoxide (DMSO) and the optical density (OD) at 550 nm was measured.\nColorectal cancer cell lines were incubated in 96-well flat-bottomed plates at 5,000 cells per well in 200 μL of complete RPMI1640 medium. The cells were allowed to adhere to the plates overnight at 37° C. (day 0). […] Then 20 μL of 10×MTT solution was added to each well and incubated at 37° C. for 2 hr. The adherent cells were lysed with 150 μL of DMSO, and then optical density (OD) at 562 nm was measured. DMSO or culture medium was used as a control.\nMTT assay was performed at each time point."}, "[2]": {"test_system": "HCT116 cells", "experiment": "Flow-based cytotoxicity assay (annexin V), HCT116", "format": "cell-based", "details": "3 days, 0.2-20 μM", "description": "After 3 days incubation, all cells were harvested with 0.05% trypsin/EDTA and spun down by centrifugation. Cells were labeled with biotin-conjugated Annexin V, and then stained with 7-AAD and Streptavidin-APC. Samples were acquired by FACSCalibur machine (BD Bioscience) and analyzed with CellQuest software. Cells were analyzed for expression of Annexin V as a marker of apoptosis.\nAnnexin V may be used as a marker for apoptosis and other forms of cell death. […] After 3 days of incubation, all cells were harvested with 0.05% trypsin/EDTA, labeled with biotin-conjugated Annexin V, and then stained with 7-AAD and streptavidin-APC. Samples were acquired by FACSCalibur, and percentages of annexin V-positive cells were analyzed and plotted as shown in FIG. 11. Cells were analyzed for expression of Annexin V as a marker of apoptosis."}, "[3]": {"test_system": "LEF/TCF transcription factor reporter (TOPFlash)", "experiment": "TOPFlash reporter assay in HEK293 cells", "format": "cell-based", "details": "Homo sapiens", "description": "(§1) To obtain a Frizzled1-GFP stable cell line (Fzd1GFP-U2OS), U2OS cells were transfected with pCS2ratFrizzled1-GFP and pLKO.1 (10:1 ratio by weight), using the Nucleofection transfection protocol from Amaxa, and stable receptor expressing clones were selected using 1.5 μg/mL puromycin in the culture medium. For generating TOPFlash stable cell lines, HEK293 cells were transfected with p8xTOPFlash, the Renilla luciferase plasmid, and pLKO.1 at a ratio by weight of 10:3:1 and stable clones selected using 1 μg/mL puromycin in the growth medium. pLKO.1 was used to confer puromycin resistance to the stable clones.\nFor the TOPFlash Luciferase assay the TOPFlash stable cells were seeded in 150 μL growing medium/well in 96-well plates at 100% confluency. Fifty microliters of conditioned medium containing the chemical compounds to be tested or DMSO were added to each well. After an 8 hr treatment, the cells were then washed once with PBS, and lysed with 80 μL MPER solution (Pierce, Rockford, Ill.). Thirty microliters of cell lysate were used for measuring luciferase activity in a 96-well plate reader (FluoStar Optima, BMG Labtech, Chicago, Ill.).\nLEF/TCF transcription factor reporter (TOPFlash) assay is a general readout for canonical Wnt signaling pathways. […] A Renila luciferase plasmid was also generated to serve as an internal control.\nThe average TOPFlash reporter activity of Wnt3A plus DMSO treatment was set as 100%, and the relative reporter activity of Wnt3A plus the indicated concentration of niclosmide was calculated and plotted.\nThe compounds shown in Table 2 were purchased from Sigma-Aldrich (St. Louis, Mo.) or Chembridge (San Diego, Calif.). The activity of each of the compounds as a negative modulator of the Wnt/Frizzled signaling pathway was examined using the Top-flash assay, as described above."}, "[4]": {"experiment": "Side effects during in vivo treatment", "set-up": "species or system NOD/SCID mice", "details": "up to 200 mg/kg gavage, 2-3 weeks", "description": "HCT116 colon cancer cells were harvested from flasks with 0.05% Trypsin/EDTA and resuspended with Hanks buffered solution at 5×10^6 cells/100 μL concentration. CRC explants (CRC039) cultured in vitro were harvested with the same procedure and mixed with equal volume of Matrigel to make 1×10^6 cells/100 μL concentration. The cell suspension (100 μL) was inoculated into the flank of NOD/SCID mice 4 days before the start of treatment. […] Initially, 2 weeks of treatment was planned for both HCT116 and CRC039. However, treatment was extended to 3 weeks for CRC039 cells because the […] grew much slower than the HCT116 cell line. Tumor size was measured 3 times a week until mice were euthanized."}, "[5]": {"molecular_target": "Frizzled1-GFP (Rattus norvegicus, UniProt Q08463)", "sequence (Q08463 69-641)": "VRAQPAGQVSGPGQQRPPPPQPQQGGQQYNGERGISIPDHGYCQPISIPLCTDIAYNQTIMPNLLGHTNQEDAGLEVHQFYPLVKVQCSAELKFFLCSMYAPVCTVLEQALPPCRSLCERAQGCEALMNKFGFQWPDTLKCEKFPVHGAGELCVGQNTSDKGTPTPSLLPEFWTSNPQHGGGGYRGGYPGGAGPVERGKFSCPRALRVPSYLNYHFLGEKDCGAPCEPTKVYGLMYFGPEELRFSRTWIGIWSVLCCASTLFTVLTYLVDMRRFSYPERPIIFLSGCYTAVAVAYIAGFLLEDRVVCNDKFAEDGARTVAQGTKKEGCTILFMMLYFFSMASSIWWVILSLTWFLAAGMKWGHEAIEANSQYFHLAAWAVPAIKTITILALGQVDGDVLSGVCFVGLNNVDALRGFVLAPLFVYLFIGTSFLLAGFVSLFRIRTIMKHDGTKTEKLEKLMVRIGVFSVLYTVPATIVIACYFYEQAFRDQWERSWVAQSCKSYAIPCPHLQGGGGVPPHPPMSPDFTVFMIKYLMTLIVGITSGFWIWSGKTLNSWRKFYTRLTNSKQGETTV", "experiment": "Image-based Frizzled1-GFP internalization assay (primary screening assay) in Fzd1GFP-U2OS cells", "format": "cell-based", "details": "6 hr, 0.47-7.5 μM tested", "description": "as §1\nThe plates were incubated overnight at 37° C. in 5% CO2. […]\nTo measure the number of the internalized vesicles per cell, cytosol was carefully traced to exclude cell membrane. […] The number of internalized vesicles per cell was counted by the Metamorph software. More than 30 cells per sample were analyzed to obtain statistical significance. […]\nTo determine the time-course of internalization for Frizzled1-GFP receptors, the accumulation of cytosolic puncta/vesicles was measured (FIG. 4A-4E). Internalization was assessed by counting the number of Frizzled1-GFP containing vesicles in the cytosol using the computer program Metamorph, and the results are presented in the graph for the given times (0 hr, n=51 cells; 1 hr, n=69; 2 hr, n=32; 4 hr, n=55, and 6 hr, n=61). […]"}},
  "note": "Read-outs that look alike come from different tables or passages of the source.",
  "data": [
    {"smiles": "O=C(Nc1ccc([N+](=O)[O-])cc1Cl)c1cc(Cl)ccc1O", "note": "[niclosamide]", "values": [
      {"measurement": "concentration showing anti-proliferation effect", "setting": "[1]; 0.4, 2, 10 μM tested, 72 hr", "value": 10, "unit": "µM"},
      {"measurement": "% proliferation over time", "setting": "[1]; 0.4, 2, 10 μM, 24-96 hr", "value": "insensitive"},
      {"measurement": "concentration with steep increase of annexin V-positive cells", "setting": "[2]", "value": 0.2, "unit": "µM"},
      {"measurement": "IC50", "setting": "[3]; Wnt3A conditioned medium, read-out: IC50 of inhibition of Wnt3A stimulated TOPFlash reporter activity", "value": "500 ± 50", "unit": "nM"},
      {"measurement": "IC50", "setting": "[3]; read-out: TopFlash assay: IC50", "value": "< 1000", "unit": "nM"},
      {"measurement": "side effects during treatment", "setting": "[4]", "value": "no obvious side effect"},
      {"measurement": "concentration with significant increase in the number of internalized receptors", "setting": "[5]", "value": "1 to 2", "unit": "µM"}
    ]}
  ]
}
